How the values were obtained:
[1] = system: Colon cancer C26 cells; experiment: In vitro cytotoxicity under normoxic and hypoxic partial pressures for 48 hours, C26 cells (Test Example 4); assay type: cell-based, mouse; details: especially under low oxygen partial pressures
Procedure: (§1) Colon cancer C26 and HeLa cells (1×10^4 cells/well) were seeded in Falcon 96-well culture plates and cultured overnight at 37° C. in Eagle MEM containing 10% FBS under normoxic partial pressure (5% CO2, 95% air) and hypoxic partial pressure (using a hypoxic chamber, pO2 6-8%). […] Finally, cell viability was analyzed by MTT assay.
(§2) C26 and HeLa cells were also cultured as described above (FIGS. 7A and 7B) and treated with glucosamine (G) and SMA-glucosamine (SG). Finally, cell viability was measured by MTT assay.

[2] = system: mouse colon cancer cells (C26); experiment: In vitro cytotoxicity, MTT, mouse colon cancer cells C26 (Test Example 3); assay type: cell-based; details: ordinary medium containing 0.1% glucose
Procedure: These C26 cells subcultured intraperitoneally in mice were washed with a MEM medium (centrifugation, 1,500 rpm) and then adjusted the number of cells to 10^5/ml. […] Firstly, the above cells were cultured at a normal oxygen partial pressure for 24 to 30 hours, and then the culture medium [Petri dish, 96 wells] was transferred to a microaerobic conditions, which was made by adding a commercially available oxygen absorber to an anaerobic culture chamber, i.e., a hypoxic agent (oxygen absorber), AnaeroPack—Micro aero generator manufactured by Mitsubishi Gas Chemical Company, Inc., Tokyo, was added into an anaerobic culture chamber to be a microaerobic (hypoxic) oxygen partial pressure (6 to 9%). The sealed chamber used in this test was a medium square jar (3.5 L) manufactured by Sugiyama-Gen Co., Ltd., Tokyo. In this state, the reagents to be examined were added to each medium at a predetermined concentration, and further cultured for 36 hours. After that, the number of living cells was measured by the above MTT method.

[3] = Surface charge (Zeta potential); assay type: physicochemical; details: deionized water, 20 mg/ml
[4] = system: HeLa cells; experiment: In vitro cytotoxicity under normoxic and hypoxic partial pressures for 48 hours, HeLa cells (Test Example 4); assay type: cell-based; details: especially under low oxygen partial pressures
Procedure: as §1, §2

[5] = Particle size by dynamic light scattering; assay type: physicochemical; details: 0.1 M tris-HCl buffer (pH 8.2), 15 mg/ml, 25° C.
Procedure: Then, each solution was measured at 25° C. by a light scattering apparatus, Model ELSZ⋅2000ZS manufactured by Otsuka Electronics (Photal Inc., Osaka).

[6] = pH of lyophilized product dissolved in distilled water; assay type: physicochemical
[7] = Solubility of lyophilized product in distilled water; assay type: physicochemical; details: attempted 10 mg/ml solution
[8] = system: Staphylococcus aureus
Procedure: (§3) Firstly, in a Falcon plastic plate with 96 wells, 0.1 ml of Mueller-Hinton medium was added to each well, followed by 10 μl of suspension of each bacterium (10^4/well).

[9] = system: Escherichia coli (E. coli)
Procedure: as §3

[10] = system: HeLa cells; details: aerobic conditions, 24 hours drug treatment
Procedure: The culture of cells was performed in an Eagle MEM medium supplied with 10% fetal calf serum at 37° C. in 95% air/5% CO2. […] After that, the medium was replaced with a fresh medium and the culture was performed for further 24 hours. Then, viable cells was measured by the MTT method.

[11] = 24 hours, 37° C., boric acid equivalent

Compound | Cytotoxicity (cell viability, MTT) [1] | Cytostatic action, rank order [2] | Surface charge (Zeta potential) [3] [mV] | Cytotoxicity (cell viability, MTT) [4] | Average particle size (dynamic light scattering method) in diameter [5] [nm] | Intrinsic pH in solution of lyophilized product in distilled water [6] | Solubility in distilled water [7] | Antibacterial activity compared with boric acid [8] | Concentration of boric acid at which antibacterial activity was shown [8, 11] | Antibacterial activity under more anaerobic conditions ([8]; more anaerobic conditions) | Antibacterial activity compared with boric acid [9] | Concentration of boric acid at which antibacterial activity was shown [9, 11] | Antibacterial activity under more anaerobic conditions ([9]; more anaerobic conditions) | Growth of cancer cells (cell viability, MTT) [10]
SMA-glucosamine conjugate [SG] | very potent cytotoxicity | strengthened in the order of (A) free glucosamine, (B) SG and (C) SGB | −27 | very potent cytotoxicity | 90 ± 3 | 8.5 | poorly soluble |  |  |  |  |  |  | 
SMA-glucosamine-boric acid complex [SGB] |  | strengthened in the order of (A) free glucosamine, (B) SG and (C) SGB |  |  |  |  |  | stronger antibacterial activity than boric acid | lower than 10 mg/ml | further increased | stronger antibacterial activity than boric acid | lower than 10 mg/ml | further increased | significantly suppressed
N[C@H]1C(O)O[C@H](CO)[C@@H](O)[C@@H]1O (stereo partly shown) [glucosamine, reference compound] |  | strengthened in the order of (A) free glucosamine, (B) SG and (C) SGB |  |  |  |  |  |  |  |  |  |  |  | 

Source: patent publication US20220218832A1, “POLYMER DRUG” (BIODYNAMIC RESEARCH FOUNDATION, priority 2019, published 2022)
